Publication PMC7341856 (Scientific Reports, 2020)
Values after ≈ are worked out from the molar mass of the structure shown. Values joined by “and” are separate entries in the source; they are usually repeats but may differ in a detail not shown here. Equal values may be shown once.

Legend:
[1] = tested on: S. aureus 8325-4; assay: microbe, parasite or virus in culture; format: cell-based; conditions: Staphylococcus aureus, 83254, Erythrocyte, in Ovis aries, read-out: IC50 (antihemolytic)
[2] = tested on: S. aureus NCTC 5655; assay: microbe, parasite or virus in culture; format: cell-based, Staphylococcus aureus; conditions: for MBC: Staphylococcus aureus, NCTC5655, 24 h, read-out: Minimal bactericidal concentration MBC
[3] = tested on: S. aureus 8325-4; assay: microbe, parasite or virus in culture; format: cell-based, Staphylococcus aureus; conditions: for MBC: Staphylococcus aureus, 83254, 24 h, read-out: Minimal bactericidal concentration MBC
[4] = target: T1, S. aureus α-hemolysin (αHL) (Staphylococcus aureus, UniProt P09616); assay: cell-based
[5] = tested on: erythrocyte membrane; format: cell-based, sheep
[6] = target: T1, S. aureus α-hemolysin (αHL); conditions: sheep
[7] = tested on: S. aureus NCTC 5655; assay: microbe, parasite or virus in culture; format: cell-based; conditions: Staphylococcus aureus, NCTC5655, Erythrocyte, in Ovis aries, read-out: IC50 (antihemolytic)

T1 sequence (P09616 27-319 limits assumed): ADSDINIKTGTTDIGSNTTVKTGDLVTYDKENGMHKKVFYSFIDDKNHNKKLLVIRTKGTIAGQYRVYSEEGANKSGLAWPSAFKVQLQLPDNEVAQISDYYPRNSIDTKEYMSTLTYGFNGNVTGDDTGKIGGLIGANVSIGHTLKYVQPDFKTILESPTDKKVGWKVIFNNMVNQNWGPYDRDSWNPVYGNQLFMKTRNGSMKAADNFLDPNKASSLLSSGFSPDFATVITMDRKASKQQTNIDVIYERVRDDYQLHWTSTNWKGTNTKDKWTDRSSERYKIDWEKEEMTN

SMILES	IC50 [1]	Minimal bactericidal concentration MBC [2]	MBC [2]	Minimal bactericidal concentration MBC [3]	MBC [3]	IC50 [4]	order parameter S/S0 [5]	increase of IC50 after washing of erythrocytes [6]	IC50 [7]
O=C(OC1OC2COC(=O)c3cc(Oc4c(C(=O)O)cc(O)c(O)c4O)c(O)c(O)c3-c3c(cc(O)c(O)c3O)C(=O)OC2C(O)C1OC(=O)c1cc(O)c(O)c(O)c1)c1cc(O)c(O)c(O)c1 [Compound T4, 1,2-di-O-galloyl-4,6-valoneoyl-β-D-glucose]	60.4 ± 3.3 µM	75 µM (≈ 71.6 µg/mL)	100 µM (≈ 95.5 µg/mL)	75 µM (≈ 71.6 µg/mL)	100 µM (≈ 95.5 µg/mL)	14.5 ± 1.1 µM	1.074 ± 0.059 and 0.885 ± 0.073	approximately 40 fold	59.5 ± 9.6 µM
O=C(OCC1OC(OC(=O)c2cc(O)c(O)c(O)c2)C(OC(=O)c2cc(O)c(O)c(O)c2)C(OC(=O)c2cc(O)c(O)c(OC(=O)c3cc(O)c(O)c(O)c3)c2)C1OC(=O)c1cc(O)c(O)c(O)c1)c1cc(O)c(O)c(OC(=O)c2cc(O)c(O)c(O)c2)c1 [Compound T1, 3,6-bis-O-di-O-galloyl-1,2,4-tri-O-galloyl-β-D-glucose]	8.7 ± 0.81 µM	–	25 µM (≈ 31.1 µg/mL)	–	50 µM (≈ 62.2 µg/mL)	2.94 ± 1.45 µM	–	–	7.26 ± 0.29 µM
O=C(OCC1OC(OC(=O)c2cc(O)c(O)c(O)c2)C(OC(=O)c2cc(O)c(O)c(O)c2)C(OC(=O)c2cc(O)c(O)c(O)c2)C1OC(=O)c1cc(O)c(O)c(O)c1)c1cc(O)c(O)c(O)c1 [Compound T2, 1,2,3,4,5-penta-O-galloyl-β-D-glucose]	22.4 ± 2.8 µM	–	50 µM (≈ 47 µg/mL)	–	75 µM (≈ 70.6 µg/mL)	3.52 ± 1.37 µM	1.267 ± 0.0398 and 0.662 ± 0.072	–	13 ± 1.18 µM
O=C(OC1C(O)C(CO)OC2OC(=O)c3cc(Oc4c(C(=O)O)cc(O)c(O)c4O)c(O)c(O)c3-c3c(cc(O)c(O)c3O)C(=O)OC21)c1cc(O)c(O)c(O)c1 [Compound T3, 3-O-galloyl-1,2-valoneoyl-β-D-glucose]	52.2 ± 1.2 µM	–	100 µM (≈ 80.3 µg/mL)	–	100 µM (≈ 80.3 µg/mL)	27.5 ± 1.06 µM	0.947 ± 0.028 and 0.911 ± 0.042	approximately 40 fold	90.6 ± 22.7 µM
